Experimental data as given in paper PMC9304929, “The Cholesterol-Binding Sequence in Monomeric C-Reactive Protein Binds to the SARS-CoV-2 Spike Receptor-Binding Domain and Blocks Interaction With Angiotensin-Converting Enzyme 2” (Frontiers in Immunology, 2022).

Tested on: SARS-CoV-2 spike RBD
Experiment: Spike RBD-mCRP binding ELISA
Settings: His-tagged proteins expressed in E. coli, n = 3
Description: The interactions of the spike-RBD with mCRP or CRP were also examined by enzyme-linked immunosorbent assay (ELISA) using mCRP/CRP-specific mAbs. Briefly, 100 μL of spike-RBD (1μg/mL) in Tris-buffered saline (TBS; 10 mM Tris, 140 mM NaCl, pH 7.4) was added per well to coat in 96-well microplates overnight at 4°C. The wells were then washed three times with TBS containing 0.02% Tween-20 for 5 min and blocked with 1% bovine serum albumin (BSA) in TBS for 1 h at 37°C. Next, mCRP was added and the plates were incubated for 1 h at 37°C. The color was developed by adding tetramethyl benzidine (TMB) to the wells and the color development was stopped with 1 M H2SO4.

Substance: WT mCRP
- binding of mCRP wild type or mutants to the spike RBD (ELISA): bound
